Laboratory results published in patent US20230139171A1 (SITA Information Networking Computing UK Limited, priority 2019, published 2023).

Legend:
Type in all cases: cell-based
human TLR7 = biological target: T1, human TLR7 (Homo sapiens, UniProt Q9NYK1); assay: TLR7 inhibition reporter assay (HEK-Blue cells, SEAP reporter, gardiquimod stimulation); settings: HEK-Blue cells overexpressing human TLR7, SEAP reporter, gardiquimod 7.5 μM; read-out: TLR7 IC50
T1 construct: host or cells: HEK-Blue cells
T1 sequence (Q9NYK1 27-1049): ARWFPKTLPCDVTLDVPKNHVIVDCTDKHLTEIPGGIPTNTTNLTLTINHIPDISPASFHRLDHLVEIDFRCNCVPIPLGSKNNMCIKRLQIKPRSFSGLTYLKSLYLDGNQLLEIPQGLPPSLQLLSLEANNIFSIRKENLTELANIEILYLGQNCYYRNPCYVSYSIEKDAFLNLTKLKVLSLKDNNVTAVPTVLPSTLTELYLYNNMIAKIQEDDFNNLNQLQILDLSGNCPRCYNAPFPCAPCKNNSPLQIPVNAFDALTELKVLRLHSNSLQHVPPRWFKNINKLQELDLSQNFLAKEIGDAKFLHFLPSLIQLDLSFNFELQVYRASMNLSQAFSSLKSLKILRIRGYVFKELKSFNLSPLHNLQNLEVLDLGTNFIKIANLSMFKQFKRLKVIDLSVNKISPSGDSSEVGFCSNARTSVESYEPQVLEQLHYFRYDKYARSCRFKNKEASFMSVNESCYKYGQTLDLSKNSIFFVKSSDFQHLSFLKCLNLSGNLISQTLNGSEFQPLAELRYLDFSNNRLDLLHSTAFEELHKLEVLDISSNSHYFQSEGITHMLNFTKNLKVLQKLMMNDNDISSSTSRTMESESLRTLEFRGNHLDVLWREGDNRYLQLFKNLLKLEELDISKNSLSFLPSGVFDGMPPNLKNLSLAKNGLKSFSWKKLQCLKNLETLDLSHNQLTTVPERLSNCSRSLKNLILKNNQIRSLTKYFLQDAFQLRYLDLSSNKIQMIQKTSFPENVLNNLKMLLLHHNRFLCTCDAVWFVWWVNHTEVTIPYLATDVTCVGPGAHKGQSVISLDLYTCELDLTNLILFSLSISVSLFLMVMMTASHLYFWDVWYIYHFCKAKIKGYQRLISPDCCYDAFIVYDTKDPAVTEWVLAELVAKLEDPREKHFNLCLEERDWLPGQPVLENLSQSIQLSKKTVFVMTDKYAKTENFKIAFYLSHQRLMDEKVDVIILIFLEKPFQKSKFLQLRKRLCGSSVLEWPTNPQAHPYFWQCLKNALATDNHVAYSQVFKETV
How it was run: (§1)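 Screening used HEK-Blue cells overexpressing one human TLR (7, 8 or 9) and an IFN-β minimal promoter–NF-κB/AP-1 SEAP construct. Stimulation lasted 22 h at 37 °C with receptor-specific agonist: gardiquimod, R848 or ODN2006 at 7.5 μM, 15.9 μM and 5 nM.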

human TLR8 = biological target: T2, human TLR8 (Homo sapiens, UniProt Q9NR97); assay: TLR8 inhibition reporter assay (HEK-Blue cells, SEAP reporter, R848 stimulation); settings: HEK-Blue cells overexpressing human TLR8, SEAP reporter, R848 15.9 μM; read-out: TLR8 IC50
T2 construct: host or cells: HEK-Blue cells
T2 sequence (Q9NR97 27-1041): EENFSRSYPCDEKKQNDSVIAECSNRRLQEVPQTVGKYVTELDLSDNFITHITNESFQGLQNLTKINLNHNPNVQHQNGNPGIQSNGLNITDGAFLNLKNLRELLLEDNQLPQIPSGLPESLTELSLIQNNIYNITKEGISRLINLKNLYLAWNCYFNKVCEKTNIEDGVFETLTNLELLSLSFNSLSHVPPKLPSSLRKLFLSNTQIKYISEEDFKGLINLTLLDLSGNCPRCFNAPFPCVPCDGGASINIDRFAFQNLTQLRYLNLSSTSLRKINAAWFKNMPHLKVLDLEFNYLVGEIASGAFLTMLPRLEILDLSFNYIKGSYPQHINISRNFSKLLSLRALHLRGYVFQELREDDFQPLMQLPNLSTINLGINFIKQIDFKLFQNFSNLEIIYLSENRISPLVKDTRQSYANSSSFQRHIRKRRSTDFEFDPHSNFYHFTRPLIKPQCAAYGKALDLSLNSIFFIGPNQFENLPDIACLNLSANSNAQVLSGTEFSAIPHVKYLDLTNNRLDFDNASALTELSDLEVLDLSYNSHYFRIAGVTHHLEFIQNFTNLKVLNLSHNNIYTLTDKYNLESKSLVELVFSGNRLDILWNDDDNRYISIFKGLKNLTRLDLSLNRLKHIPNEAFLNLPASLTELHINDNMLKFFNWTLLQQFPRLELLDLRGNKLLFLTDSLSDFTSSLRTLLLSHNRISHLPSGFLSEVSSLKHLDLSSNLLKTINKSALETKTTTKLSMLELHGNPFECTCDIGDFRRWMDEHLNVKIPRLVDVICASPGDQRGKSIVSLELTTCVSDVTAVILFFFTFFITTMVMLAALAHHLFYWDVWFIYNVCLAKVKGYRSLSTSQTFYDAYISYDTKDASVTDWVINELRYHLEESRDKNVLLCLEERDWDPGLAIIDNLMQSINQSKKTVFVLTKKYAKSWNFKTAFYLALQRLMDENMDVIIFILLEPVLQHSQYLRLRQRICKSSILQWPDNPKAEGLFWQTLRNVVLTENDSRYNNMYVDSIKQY
How it was run: as §1

human TLR9 = biological target: T3, human TLR9 (Homo sapiens, UniProt Q9NR96); assay: TLR9 inhibition reporter assay (HEK-Blue cells, SEAP reporter, ODN2006 stimulation); settings: HEK-Blue cells overexpressing human TLR9, SEAP reporter, ODN2006 5 nM
T3 construct: host or cells: HEK-Blue cells
T3 sequence (Q9NR96 26-1032): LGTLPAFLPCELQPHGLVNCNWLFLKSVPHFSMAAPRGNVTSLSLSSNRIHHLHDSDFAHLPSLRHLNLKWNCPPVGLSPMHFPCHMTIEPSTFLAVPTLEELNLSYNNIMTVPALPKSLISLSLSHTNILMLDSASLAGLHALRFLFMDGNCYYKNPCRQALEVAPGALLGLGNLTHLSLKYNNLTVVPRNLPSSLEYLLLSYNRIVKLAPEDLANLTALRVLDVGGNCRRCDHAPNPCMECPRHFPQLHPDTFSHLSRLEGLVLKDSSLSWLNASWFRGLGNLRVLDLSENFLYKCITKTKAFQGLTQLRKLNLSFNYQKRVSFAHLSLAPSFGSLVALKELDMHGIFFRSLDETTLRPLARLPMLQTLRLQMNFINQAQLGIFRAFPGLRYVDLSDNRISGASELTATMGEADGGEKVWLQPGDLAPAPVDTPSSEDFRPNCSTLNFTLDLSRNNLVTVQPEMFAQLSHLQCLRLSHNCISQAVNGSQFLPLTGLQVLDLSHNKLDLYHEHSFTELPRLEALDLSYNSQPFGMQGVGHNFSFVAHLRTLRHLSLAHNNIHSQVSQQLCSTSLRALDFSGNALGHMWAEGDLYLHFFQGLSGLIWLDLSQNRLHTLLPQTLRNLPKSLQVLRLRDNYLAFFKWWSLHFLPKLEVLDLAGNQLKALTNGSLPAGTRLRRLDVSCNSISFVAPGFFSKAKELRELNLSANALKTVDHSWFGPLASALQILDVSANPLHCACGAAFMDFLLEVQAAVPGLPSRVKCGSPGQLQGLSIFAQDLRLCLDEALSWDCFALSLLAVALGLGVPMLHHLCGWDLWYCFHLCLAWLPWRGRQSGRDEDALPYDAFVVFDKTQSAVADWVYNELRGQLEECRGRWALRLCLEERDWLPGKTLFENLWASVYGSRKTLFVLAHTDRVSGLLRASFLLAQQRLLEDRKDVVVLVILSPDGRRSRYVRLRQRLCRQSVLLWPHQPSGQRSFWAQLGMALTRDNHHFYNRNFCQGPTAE
How it was run: as §1

Compound	IC50 (human TLR7) [nM]	IC50 (human TLR8) [nM]	IC50 (human TLR9) [nM]
Cc1c(-c2[nH]c3sc(C4CCC(NC(C)C)CC4)nc3c2C(C)C)cn2ncnc2c1C (single isomer, unassigned) [Example 195, 4-(5-(7,8-dimethyl-[1,2,4]triazolo[1,5-a]pyridin-6-yl)-6-isopropyl-4H-pyrrolo[3,2-d]thiazol-2-yl)-N-isopropylcyclohexan-1-amine]	2.24	1.66	5500
Cc1c(-c2[nH]c3sc(C4CCC(NCC(C)(C)O)CC4)nc3c2C(C)C)cn2ncnc2c1C (single isomer, unassigned) [Example 197, 1-((4-(5-(7,8-dimethyl-[1,2,4]triazolo[1,5-a]pyridin-6-yl)-6-isopropyl-4H-pyrrolo[3,2-d]thiazol-2-yl)cyclohexyl)amino)-2-methylpropan-2-ol]	5.35	2.08	13100
Cc1c(-c2[nH]c3sc(C4CCC(NCC(C)(C)C)CC4)nc3c2C(C)C)cn2ncnc2c1C (single isomer, unassigned) [Example 199, 4-(5-(7,8-dimethyl-[1,2,4]triazolo[1,5-a]pyridin-6-yl)-6-isopropyl-4H-pyrrolo[3,2-d]thiazol-2-yl)-N-neopentylcyclohexan-1-amine]	4.98	2.19	2950
Cc1c(-c2[nH]c3sc(C4CCC(NC5CCOCC5)CC4)nc3c2C(C)C)cn2ncnc2c1C (single isomer, unassigned) [Example 201, N-(4-(5-(7,8-dimethyl-[1,2,4]triazolo[1,5-a]pyridin-6-yl)-6-isopropyl-4H-pyrrolo[3,2-d]thiazol-2-yl)cyclohexyl)tetrahydro-2H-pyran-4-amine]	6.66	4.21	9250
Cc1c(-c2[nH]c3sc(C4CCC(NCC(=O)N(C)C)CC4)nc3c2C(C)C)cn2ncnc2c1C (single isomer, unassigned) [Example 205, 2-((4-(5-(7,8-dimethyl-[1,2,4]triazolo[1,5-a]pyridin-6-yl)-6-isopropyl-4H-pyrrolo[3,2-d]thiazol-2-yl)cyclohexyl)amino)-N,N-dimethylacetamide]	6.66	2.33	21500

The next molecules have a lower IC50 (human TLR7) than those just listed; values first:

IC50 (human TLR7) [nM]	IC50 (human TLR8) [nM]	IC50 (human TLR9) [nM]	Compound
1.13	0.17	12700	Cc1c(-c2[nH]c3sc(C4CCC(NCC(C)(C)O)CC4)nc3c2C(C)C)cn2ncnc2c1C (single isomer, unassigned) [Example 196, 1-((4-(5-(7,8-dimethyl-[1,2,4]triazolo[1,5-a]pyridin-6-yl)-6-isopropyl-4H-pyrrolo[3,2-d]thiazol-2-yl)cyclohexyl)amino)-2-methylpropan-2-ol]
0.92	0.39	10100	Cc1c(-c2[nH]c3sc(C4CCC(NC5CCOCC5)CC4)nc3c2C(C)C)cn2ncnc2c1C (single isomer, unassigned) [Example 200, N-(4-(5-(7,8-dimethyl-[1,2,4]triazolo[1,5-a]pyridin-6-yl)-6-isopropyl-4H-pyrrolo[3,2-d]thiazol-2-yl)cyclohexyl)tetrahydro-2H-pyran-4-amine]
1.5	0.63	17800	Cc1c(-c2[nH]c3sc(C4CCC(NCC(=O)N(C)C)CC4)nc3c2C(C)C)cn2ncnc2c1C (single isomer, unassigned) [Example 204, 2-((4-(5-(7,8-dimethyl-[1,2,4]triazolo[1,5-a]pyridin-6-yl)-6-isopropyl-4H-pyrrolo[3,2-d]thiazol-2-yl)cyclohexyl)amino)-N,N-dimethylacetamide]
1	0.52	20000	CNC(=O)CNC1CCC(c2nc3c(C(C)C)c(-c4cn5ncnc5c(C)c4C)[nH]c3s2)CC1 (single isomer, unassigned) [Example 208, 2-((4-(5-(7,8-dimethyl-[1,2,4]triazolo[1,5-a]pyridin-6-yl)-6-isopropyl-4H-pyrrolo[3,2-d]thiazol-2-yl)cyclohexyl)amino)-N-methylacetamide]
0.32	0.14	4170	CNC(=O)CNC1CCC(c2nc3c(C(C)C)c(-c4cn5ncnc5c(C)c4C)[nH]c3s2)CC1 (single isomer, unassigned) [Example 209, 2-((4-(5-(7,8-dimethyl-[1,2,4]triazolo[1,5-a]pyridin-6-yl)-6-isopropyl-4H-pyrrolo[3,2-d]thiazol-2-yl)cyclohexyl)amino)-N-methylacetamide]
0.62	0.63	7390	Cc1c(-c2[nH]c3sc(C4CCC(N5CCOCC5)CC4)nc3c2C(C)C)cn2ncnc2c1C (single isomer, unassigned) [Example 212, 4-(4-(5-(7,8-dimethyl-[1,2,4]triazolo[1,5-a]pyridin-6-yl)-6-isopropyl-4H-pyrrolo[3,2-d]thiazol-2-yl)cyclohexyl) morpholine]
